# Molecular target: T1, Na+-dependent bile acid transport system (Oryctolagus cuniculus, UniProt Q28727)
# T1 construct: brush-border membrane vesicles from the ileum of rabbits; from tissue; host or cells: terminal ileum of male New Zealand rabbits, brush-border membrane vesicles
# T1 sequence (Q28727 1-347): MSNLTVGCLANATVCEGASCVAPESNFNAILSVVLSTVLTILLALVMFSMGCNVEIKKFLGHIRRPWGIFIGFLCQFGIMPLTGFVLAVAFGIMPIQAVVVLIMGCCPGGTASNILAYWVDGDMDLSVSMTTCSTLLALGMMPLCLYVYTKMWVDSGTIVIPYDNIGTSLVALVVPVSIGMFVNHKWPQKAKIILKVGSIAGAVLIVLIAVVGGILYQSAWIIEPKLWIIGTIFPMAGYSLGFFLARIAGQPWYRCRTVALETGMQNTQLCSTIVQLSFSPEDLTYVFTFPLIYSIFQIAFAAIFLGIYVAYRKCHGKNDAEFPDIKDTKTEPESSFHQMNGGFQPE
# Experiment: Inhibition of Na+-dependent [3H]taurocholate absorption into brush-border membrane vesicles of the ileum
# Assay type: biochemical, rabbit
# Protocol: The preparation of brush-border membrane vesicles from the intestinal cells of the small intestine was carried out using the so-called Mg^2+ precipitation method. Male New Zealand rabbits (2-2.5 kg body weight) were sacrificed by intravenous injection of 0.5 ml of T-61^R. The small intestine was removed and rinsed with ice-cold physiological saline solution. The terminal 3/10 of the small intestine (measured in the oral-rectal direction, i.e. the terminal ileum, which contains the active Na^+ -dependent bile acid transport system) were used for preparation of the brush-border membrane vesicles. The intestines were frozen at -80° C. under nitrogen in plastic bags. The frozen intestines were thawed in a water bath at 30° C. in order to prepare the membrane vesicles. The mucosa was scraped off and suspended in 60 ml of ice-cold 12 mM trys/HCl buffer (pH 7.1)/300 mM mannitol, 5 mM EGTA/10 mg/l of phenylmethylsulfonyl fluoride/1 mg/l of soybean trypsin inhibitor (32 U/mg)/0.5 mg/l of bovine lung trypsin inhibitor (193 U/mg)/5 mg/l of bacitracin. After diluting to 300 ml with ice-cold distilled water, the suspension was homogenized with ice-cooling for 3 minutes at 75% of maximum power using an Ultraturrax (18 rod, IKA Werk Staufen, Federal Republic of Germany). After addition of 3 ml of 1M MgCl2 solution (final concentration 10 mM), the homogenate was allowed to stand at 0° C. for exactly 1 minute. As a result of addition of Mg^2+, the cell membranes aggregate and precipitate with the exception of the brush-border membranes. After centrifugation at 3,000×g (5,000 rpm, SS-34 rotor) for 15 minutes, the precipitate is discarded and the supernatant which contains the brush-border membranes is centrifuged at 26,700×g (15,000 rpm, SS-34 rotor) for 30 minutes. The supernatant was discarded, and the precipitate was rehomogenized in 60 ml of 12 mM tris/HCl buffer (pH 7.1)/60 mM mannitol, 5 mM EGTA using a Potter Elvejhem homogenizer (Braun Melsungen, 900 rpm, 10 strokes). After addition of 0.1 ml of 1M MgCl2 solution and an incubation time of 15 minutes at 0° C., the mixture was again centrifuged at 3,000×g for 15 minutes. The supernatant was then again centrifuged at […] (15,000 rpm, SS-34 rotor) for 30 minutes. The precipitate was taken up in 30 ml of 10 mM tris/hepes buffer (pH 7.4)/300 mM mannitol and homogeneously resuspended by 20 strokes in a Potter Elvejhem homogenizer at 1,000 rpm. After centrifugation at 48,000×g (20,000 rpm, SS-34 rotor) for 30 minutes, the precipitate was taken up in 0.5 to 2 ml of tris/hepes buffer (pH 7.4)/280 mM mannitol (final concentration 20 mg/ml) and resuspended with the aid of a tuberculin syringe using a 27 gauge needle. The vesicles were either used immediately after preparation for transport investigations or stored at -196° C. in liquid nitrogen in 4 mg portions.
# The absorption of substrates into brush-border membrane vesicles was determined by means of the so-called membrane filtration technique. 10 μl of the vesicle suspension (100 μg of protein) were pipetted on the wall of a polystyrene incubation tube (11×70 mm) as a drop which contained the incubation medium together with the corresponding ligands (90 μl ). […] The incubation medium was filtered through a polyvinylidene fluoride membrane filter (SYHV LO 4NS, 0.45 μm, 4 mm .phi., Millipore, Eschborn, Federal Republic of Germany). The transport measurement was begun by mixing the vesicles with the incubation medium. […] After the desired incubation time (customarily 1 min), the transport was stopped by addition of 1 ml of ice-cold stop solution (10 mM tris/hepes, (pH 7.4)/150 mM KCl). The resulting mixture was immediately filtered off with suction in a vacuum of 25 to 35 mbar through a membrane filter made of cellulose nitrate (ME 25, 0.45 μm, 25 mm diameter, Schleicher & Schuell, Dassell, Federal Republic of Germany). The filter was subsequently washed with 5 ml of ice-cold Stop solution.
# [1] = Na+-dependent transport component, 50 μM taurocholate
smiles,measurement,setting,value
C[C@H](CCC(=O)NCCS(=O)(=O)O)[C@H]1CC[C@H]2[C@@H]3[C@H](O)C[C@@H]4C[C@@H](OCCNC(=O)CCCc5ccc(N(CCCl)CCCl)cc5)CC[C@]4(C)[C@H]3C[C@H](O)[C@]12C [Example 67],IC50,,47.5 µM
same,IC25,[1],24 µM
same,IC75,[1],270 µM
